Where two headings read alike, the source gives them in different places. Bounds are passed on as bounds.

The target in one test is DNMT1 (Homo sapiens, UniProt P26358). Put plainly: DNMT1 biochemical activity, breaklight assay and/or SPA assay.
Another test concerns the target human full length DNMT1 (Homo sapiens (Human), UniProt P26358). Put plainly: DNMT1 breaklight assay. In kind it is biochemical. To be noted: repeated experimental runs, read-out: average IC50 against DNMT1. The procedure: DNMT1 breaklight in vitro assays were conducted in a total volume of 50 μl in a standard 384 well format, using black non-binding surface microplates (Corning 3575). Five μl of human full length DNMT1 (produced internally), used at a final concentration of 40 nM, was added to 5 μl of substrate mixture containing final concentrations of 125 nM hemi methylated oligonucleotide (synthesized at ATD Bio; 5′-FAM-[…]5[…]5G5TAGAT-3′ where 5=methyl deoxycitidine) and 2 μM ultrapure SAM (Cisbio #62SAHZLD). Negative control wells used 5 μl of DNMT1 and 5 μl of oligonucleotide but 0 μM SAM. All reagents were made up in 1× assay buffer (20 mM Tris pH 6.8, 25 mM NaCl, 0.5 mM MgCl2, 0.01% Triton X100 and 1 mM DTT). The reaction was incubated at 26° C. for 45 min and then stopped with the addition of 40 μl detection reagent. Detection reagent, made up in 1× Gla assay buffer (20 mM Tris pH 8.0, 80 mM NaCl, 0.75 mM MgCl2, 0.01% Triton X100 and 1 mM DTT) has a final concentration of 100 μM SAH (Sigma #A9384) and 0.0008 units/μl Gla1 restriction endonuclease (Sibenzyme #E494). Following addition of the detection reagent the plate was incubated in the dark at room temperature for 5 hr. Fluorescence intensity was then measured on the PHERAstar FS (BMG Labtech) at Ex 485 nm and Em 520 nm, with a gain of 400 and an integration time of 100 ms.

The test system of test [1] is erythroid progenitor cells (EPCs). As to the kind of experiment: Fetal hemoglobin (HbF) ELISA in day 7 erythroid progenitor cells.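 Note: for fetal hemoglobin induction normalized to vehicle-treated cells.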 In kind it is cell-based, human. To be noted: Homo sapiens, Erythroid progenitor cell, HbF ELISA, day 7 EPCs, 5 days; read-out: EPC ELISA (pEC50 category) (converted). The gist of the method:
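Read-out was OD450 from an HRP/TMB sandwich ELISA on lysates, normalized to DMSO-only control wells. Thawed day 7 EPCs from human marrow CD34+ cells had been treated for 5 days at 37° C with Compound A, 22 concentrations […].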

A further test addresses DNMT3B (Homo sapiens (Human), UniProt Q9UBC3). As to the kind of experiment: DNMT3B breaklight assay. In kind it is biochemical.
A further test addresses human DNMT3a/3l (Homo sapiens (Human), UniProt Q9Y6K1). Put plainly: DNMT3a/3l breaklight assay. In kind it is biochemical. How it is done:
DNMT3a/3l Breakliqht Assay
DNMT3a/3l breaklight in vitro assays were conducted in a total volume of 50 μl in a standard 384 well format, using black non-binding surface microplates (Corning #3575). […] Negative control wells used 5 μl of DNMT3a/3l and 5 μl of oligonucleotide but also included 200 μM SAH. All reagents were made up in 1× assay buffer (20 mM Tris pH 7.4, 100 mM NaCl, 1.5 mM EDTA, 0.1 mM MgCl2, 1 mM CHAPS and 1 mM DTT). The reaction was incubated at 37° C. for 90 min and then stopped with the addition of 40 μl detection reagent. Detection reagent, made up in 1× Gla assay buffer (20 mM Tris pH 8.0, 80 mM NaCl, 0.75 mM MgCl2, 0.01% Triton X100 and 1 mM DTT) has a final concentration of 200 μM SAH (Sigma #A9384) and 0.0008 units/μl Gla1 restriction endonuclease (Sibenzyme #E494). Following addition of the detection reagent the plate was incubated in the dark at room temperature for 5 hr. Fluorescence intensity was then measured on the PHERAstar FS (BMG Labtech) at Ex 485 nm and Em 520 nm, with a gain of 400 and an integration time of 100 ms.

Where [2] appears, read: binned activity in either the breaklight or the SPA assay, read-out: DNMT1 BioChemical (pIC50 category) (converted).
[3] abbreviates: binned activity in either the breaklight or the SPA assay.
Where [4] appears, read: read-out: DNMT3B Breaklight IC50.
Setting [5] is: read-out: DNMT3A Breaklight IC50.
Setting [6] is: repeated experimental runs, read-out: average IC50, DNMT3B breaklight assay.
The mark [7] stands for this setting: repeated experimental runs, read-out: average IC50, DNMT3A breaklight assay.

human DNMT3a/3l, sequence (Q9Y6K1 whole entry, looked up): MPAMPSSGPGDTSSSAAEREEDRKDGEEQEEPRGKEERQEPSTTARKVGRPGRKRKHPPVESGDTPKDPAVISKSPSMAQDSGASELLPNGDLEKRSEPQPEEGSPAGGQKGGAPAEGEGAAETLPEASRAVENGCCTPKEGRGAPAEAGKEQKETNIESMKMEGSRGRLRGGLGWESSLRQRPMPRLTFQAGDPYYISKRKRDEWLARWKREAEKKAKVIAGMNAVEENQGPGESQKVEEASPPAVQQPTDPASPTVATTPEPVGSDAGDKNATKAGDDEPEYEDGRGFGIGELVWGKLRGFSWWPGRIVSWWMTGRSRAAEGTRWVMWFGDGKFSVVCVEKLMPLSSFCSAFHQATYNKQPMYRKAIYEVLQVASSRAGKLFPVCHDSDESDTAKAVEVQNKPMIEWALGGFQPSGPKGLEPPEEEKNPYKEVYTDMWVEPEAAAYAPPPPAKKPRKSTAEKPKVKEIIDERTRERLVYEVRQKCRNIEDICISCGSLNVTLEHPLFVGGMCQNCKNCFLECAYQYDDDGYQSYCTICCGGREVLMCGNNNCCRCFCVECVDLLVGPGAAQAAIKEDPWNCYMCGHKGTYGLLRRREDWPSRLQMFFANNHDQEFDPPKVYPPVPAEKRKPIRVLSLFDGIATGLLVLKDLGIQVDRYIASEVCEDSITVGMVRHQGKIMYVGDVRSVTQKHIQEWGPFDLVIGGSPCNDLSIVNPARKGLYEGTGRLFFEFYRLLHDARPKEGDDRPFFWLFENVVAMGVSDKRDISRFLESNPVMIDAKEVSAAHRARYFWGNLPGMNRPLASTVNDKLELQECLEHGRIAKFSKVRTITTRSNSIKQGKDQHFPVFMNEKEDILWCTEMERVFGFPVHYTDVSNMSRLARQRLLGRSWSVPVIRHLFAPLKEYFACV
human DNMT3a/3l, sequence (Q9UJW3 whole entry partner, looked up): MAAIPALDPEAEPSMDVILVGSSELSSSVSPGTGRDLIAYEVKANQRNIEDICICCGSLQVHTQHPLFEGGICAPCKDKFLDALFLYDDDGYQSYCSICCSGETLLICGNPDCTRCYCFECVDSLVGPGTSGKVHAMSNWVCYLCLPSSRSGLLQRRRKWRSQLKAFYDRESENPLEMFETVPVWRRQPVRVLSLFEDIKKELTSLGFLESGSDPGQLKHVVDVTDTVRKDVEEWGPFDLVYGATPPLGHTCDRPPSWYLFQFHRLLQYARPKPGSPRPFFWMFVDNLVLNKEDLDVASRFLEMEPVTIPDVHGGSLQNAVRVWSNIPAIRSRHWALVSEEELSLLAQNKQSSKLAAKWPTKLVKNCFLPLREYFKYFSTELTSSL
DNMT1, sequence (P26358 whole entry, looked up): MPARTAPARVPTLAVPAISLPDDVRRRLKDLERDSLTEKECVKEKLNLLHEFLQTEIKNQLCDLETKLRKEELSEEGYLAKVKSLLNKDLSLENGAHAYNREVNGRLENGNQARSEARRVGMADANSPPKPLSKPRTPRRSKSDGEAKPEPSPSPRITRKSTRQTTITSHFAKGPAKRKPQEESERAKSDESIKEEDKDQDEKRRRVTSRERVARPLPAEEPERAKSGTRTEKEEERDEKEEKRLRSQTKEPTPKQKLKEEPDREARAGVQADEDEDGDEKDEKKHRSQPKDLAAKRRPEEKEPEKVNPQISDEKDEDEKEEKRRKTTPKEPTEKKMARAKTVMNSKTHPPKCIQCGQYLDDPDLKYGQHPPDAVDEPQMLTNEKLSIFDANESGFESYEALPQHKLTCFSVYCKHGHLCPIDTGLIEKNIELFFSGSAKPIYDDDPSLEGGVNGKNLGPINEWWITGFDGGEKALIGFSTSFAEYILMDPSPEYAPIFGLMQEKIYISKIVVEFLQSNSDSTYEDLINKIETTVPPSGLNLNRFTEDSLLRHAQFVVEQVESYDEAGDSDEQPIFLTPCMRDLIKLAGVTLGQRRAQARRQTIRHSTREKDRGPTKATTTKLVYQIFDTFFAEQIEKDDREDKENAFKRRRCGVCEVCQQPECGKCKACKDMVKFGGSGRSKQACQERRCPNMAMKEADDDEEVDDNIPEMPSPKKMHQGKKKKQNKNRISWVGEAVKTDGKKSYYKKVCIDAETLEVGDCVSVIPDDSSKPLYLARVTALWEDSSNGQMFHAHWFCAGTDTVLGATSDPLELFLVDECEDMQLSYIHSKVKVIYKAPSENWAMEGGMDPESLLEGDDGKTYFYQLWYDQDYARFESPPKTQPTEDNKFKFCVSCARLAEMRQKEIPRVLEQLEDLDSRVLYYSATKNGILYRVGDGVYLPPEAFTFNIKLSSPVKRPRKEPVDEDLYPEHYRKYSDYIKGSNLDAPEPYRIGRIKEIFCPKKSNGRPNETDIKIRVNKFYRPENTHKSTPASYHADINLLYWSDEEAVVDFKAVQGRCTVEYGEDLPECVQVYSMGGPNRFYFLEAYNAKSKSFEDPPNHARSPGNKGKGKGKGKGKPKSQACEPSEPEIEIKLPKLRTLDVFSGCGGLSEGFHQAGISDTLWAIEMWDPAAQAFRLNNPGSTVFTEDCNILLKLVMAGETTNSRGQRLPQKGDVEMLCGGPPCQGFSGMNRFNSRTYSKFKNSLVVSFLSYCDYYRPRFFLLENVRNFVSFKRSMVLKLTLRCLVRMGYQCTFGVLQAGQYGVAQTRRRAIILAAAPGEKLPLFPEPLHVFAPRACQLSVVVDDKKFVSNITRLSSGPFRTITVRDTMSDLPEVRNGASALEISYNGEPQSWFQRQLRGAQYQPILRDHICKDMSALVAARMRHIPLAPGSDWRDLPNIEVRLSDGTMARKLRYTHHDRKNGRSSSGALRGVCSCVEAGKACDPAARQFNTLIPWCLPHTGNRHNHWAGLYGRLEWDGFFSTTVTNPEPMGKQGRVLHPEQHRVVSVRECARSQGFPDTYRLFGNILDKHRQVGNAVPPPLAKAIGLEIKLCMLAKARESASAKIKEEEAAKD
human full length DNMT1, sequence (P26358 whole entry): as the sequence (P26358 whole entry, looked up) above

Turning to `CC1CN(c2nc(SC(C(N)=O)c3ccccc3)c(C#N)c(C3CC3)c2C#N)CC(C)O1` (centres unmarked) [Example 21, 2-((3,5-Dicyano-4-cyclopropyl-6-(2,6-dimethylmorpholino)pyridin-2-yl)thio)-2-phenylacetamide], the IC50 is 316 to 1000 nM on DNMT1 (setting [2]) and greater than 750 nM on human full length DNMT1. Further, in test [1], the EC50 is 1000 to 31600 nM.

Turning to `N#Cc1c(SC(C(N)=O)c2ccccc2)nc(N2CCNC(=O)C2)c(C#N)c1C1CC1` (centres unmarked) [Example 15, 2-{[3,5-dicyano-4-cyclopropyl-6-(3-oxopiperazin-1-yl)pyridin-2-yl]sulfanyl}-2-phenylacetamide], the IC50 on DNMT1 (setting [2]) is 316 to 1000 nM; on human full length DNMT1 it was 440 nM. Besides, the EC50 in test [1] was 1000 to 31600 nM.

Regarding `N#Cc1c(SC(C(N)=O)c2ccccc2)nc(N2CCC(N)CC2)c(C#N)c1C1CC1` (centres unmarked) [Example 28, 2-((6-(4-aminopiperidin-1-yl)-3,5-dicyano-4-cyclopropylpyridin-2-yl)thio)-2-phenylacetamide], at DNMT1 (setting [3]), the “DNMT1 BioChemical (pIC50 category)” value is “D (Category D: ≥6.5)”. The IC50 on human full length DNMT1 is no more than 500 nM. Further, the EC50 in test [1] is less than 316 nM.

For `CCc1c(C#N)c(SC(C(N)=O)c2ccccc2)nc(N2C[C@@H](C)N[C@@H](C)C2)c1C#N` (stereo partly drawn) [Example 61, 2-((3,5-Dicyano-6-((3S,5R)-3,5-dimethylpiperazin-1-yl)-4-ethylpyridin-2-yl)thio)-2-phenylacetamide], on DNMT1 (setting [3]), the “DNMT1 BioChemical (pIC50 category)” value is listed as “D (Category D: ≥6.5)”. Besides, at human full length DNMT1, the IC50 was no more than 500 nM. In addition, the EC50 in test [1] was less than 316 nM.

`CCc1c(C#N)c(SC(C(N)=O)c2ccccc2)nc(N2CCCNCC2)c1C#N` (centres unmarked) [Example 112, 2-{[3,5-Dicyano-6-(1,4-diazepan-1-yl)-4-ethylpyridin-2-yl]sulfanyl}-2-phenylacetamide]: the “DNMT1 BioChemical (pIC50 category)” value at DNMT1 (setting [3]) is “D (Category D: ≥6.5)”. In addition, the IC50 at DNMT3B (setting [4]) and at human DNMT3a/3l (setting [5]) was greater than 500000 nM each time. In addition, the EC50 in test [1] was less than 316 nM.

Take `CCc1c(C#N)c(N)nc(S[C@@H](C(N)=O)c2ccccc2)c1C#N` [Example 2, (R)-[(6-amino-3,5-dicyano-4-ethylpyridin-2-yl)sulfanyl]-2-phenylacetamide]: the IC50 is 316 to 1000 nM at DNMT1 (setting [2]), greater than 500000 nM at DNMT3B (setting [4]) and greater than 500000 nM at human DNMT3a/3l (setting [5]). Also, the EC50 in test [1] is greater than 31600 nM.

As for `CCc1c(C#N)c(SC(C(N)=O)c2ccccc2)nc(N2CCN(C(C)=O)CC2)c1C#N` (centres unmarked) [Example 126, 2-((6-(4-Acetylpiperazin-1-yl)-3,5-dicyano-4-ethylpyridin-2-yl)thio)-2-phenylacetamide], the IC50 is 316 to 1000 nM at DNMT1 (setting [2]); 316 to 1000 nM at DNMT1 (breaklight assay and/or SPA assay, repeated experimental runs, read-out: average pIC50 against DNMT1 (converted)); greater than 500000 nM at DNMT3B (setting [4]); greater than 500000 nM on human DNMT3a/3l (setting [5]). The EC50 in test [1] is less than 316 nM.

Regarding `CCc1c(C#N)c(SC(C(N)=O)c2ccccc2)nc(N2CCCN(CC)CC2)c1C#N` (centres unmarked) [Example 7, 2-{[3,5-dicyano-4-ethyl-6-(4-ethyl-1,4-diazepan-1-yl)pyridin-2-yl]sulfanyl}-2-phenylacetamide], on DNMT1 (setting [3]), the “DNMT1 BioChemical (pIC50 category)” value is “D (Category D: ≥6.5)”. Also, the IC50 at DNMT3B (setting [4]), on DNMT3B (setting [6]), at human DNMT3a/3l (setting [5]) and at human DNMT3a/3l (setting [7]) was greater than 500000 nM in each case. In addition, in test [1], the EC50 was less than 316 nM.

As for `CCc1c(C#N)c(SC(C(N)=O)c2ccccc2)nc(N2CCC(=O)CC2)c1C#N` (centres unmarked) [Example 59, 2-((3,5-dicyano-4-ethyl-6-(4-oxopiperidin-1-yl)pyridin-2-yl)thio)-2-phenylacetamide], the IC50 is 316 to 1000 nM on DNMT1 (setting [2]), greater than 500000 nM at DNMT3B (setting [4]) and greater than 500000 nM at human DNMT3a/3l (setting [5]). In addition, the EC50 in test [1] was 316 to 1000 nM.

Take `CCc1c(C#N)c(N)nc(SC(C(N)=O)c2ccccc2)c1C#N` (centres unmarked) [Example 1, 2-[(6-amino-3,5-dicyano-4-ethylpyridin-2-yl)sulfanyl]-2-phenylacetamide]: the IC50 was 1000 to 31600 nM on DNMT1 (setting [2]), greater than 500000 nM at DNMT3B (setting [4]) and 417000 nM on human DNMT3a/3l (setting [5]). Besides, in test [1], the EC50 was greater than 31600 nM.

Turning to `N#Cc1c(N)nc(SC(C(N)=O)c2ccccc2)c(C#N)c1C1CC1` (centres unmarked) [Example 51, 2-[(6-amino-3,5-dicyano-4-cyclopropyl-2-pyridyl)sulfanyl]-2-phenyl-acetamide], the IC50 at DNMT1 (setting [2]) is 316 to 1000 nM; at DNMT3B (setting [4]), greater than 500000 nM; on human DNMT3a/3l (setting [5]), greater than 500000 nM. Further, the EC50 in test [1] is greater than 31600 nM.

For the compound `CCc1c(C#N)c(NC)nc(SC(C(N)=O)c2ccccc2)c1C#N` (centres unmarked) [Example 52, 2-((3,5-Dicyano-4-ethyl-6-(methylamino)pyridin-2-yl)thio)-2-phenylacetamide], the IC50 on DNMT1 (setting [2]) is 316 to 1000 nM; at DNMT3B (setting [4]), greater than 500000 nM; at DNMT3B (setting [6]), greater than 500000 nM; on human DNMT3a/3l (setting [5]), greater than 500000 nM; on human DNMT3a/3l (setting [7]), greater than 500000 nM. Besides, the EC50 in test [1] was 1000 to 31600 nM.

As to `CCc1c(C#N)c(SC(C(N)=O)c2ccccc2)nc(N(C)CCOC)c1C#N` (centres unmarked) [Example 53, 2-((3,5-Dicyano-4-ethyl-6-((2-methoxyethyl)(methyl)amino)pyridin-2-yl)thio)-2-phenylacetamide], the IC50 is 1000 to 31600 nM on DNMT1 (setting [2]), greater than 500000 nM on DNMT3B (setting [4]) and greater than 500000 nM at human DNMT3a/3l (setting [5]). Moreover, in test [1], the EC50 was 1000 to 31600 nM.

Take `CC1CN(c2nc(SC(C(N)=O)c3ccccc3)c(C#N)c(C3CC3)c2C#N)CC(C)N1` (centres unmarked) [Example 20]: on human full length DNMT1, the IC50 is no more than 500 nM. In test [1], the EC50 is less than 316 nM.

On to `CCc1c(C#N)c(SC(C(N)=O)c2ccccc2)nc(N2CCC(N3CCNC3=O)CC2)c1C#N` (centres unmarked) [Example 47, 2-((3,5-Dicyano-4-ethyl-6-(4-(2-oxoimidazolidin-1-yl)piperidin-1-yl)pyridin-2-yl)thio)-2-phenylacetamide], for which the IC50 is 316 to 1000 nM at DNMT1 (setting [2]); greater than 500000 nM on DNMT3B (setting [4]); greater than 500000 nM on DNMT3B (setting [6]); greater than 500000 nM on human DNMT3a/3l (setting [5]); greater than 500000 nM on human DNMT3a/3l (setting [7]). The EC50 in test [1] is 316 to 1000 nM.

Take `CCc1c(C#N)c(SC(C(N)=O)c2ccc(Cl)cc2)nc(N(C)C)c1C#N` (centres unmarked) [Example 128, 2-(4-Chlorophenyl)-2-((3,5-dicyano-6-(dimethylamino)-4-ethylpyridin-2-yl)thio)acetamide]: the IC50 was 316 to 1000 nM at DNMT1 (setting [2]), greater than 500000 nM on DNMT3B (setting [4]) and greater than 500000 nM on human DNMT3a/3l (setting [5]). Also, the EC50 in test [1] is 316 to 1000 nM.

Regarding `CCc1c(C#N)c(SC(C(N)=O)c2ccccc2)nc(N2CCC3(CCCN(C)C3)CC2)c1C#N` (centres unmarked) [Example 118, 2-((3,5-Dicyano-4-ethyl-6-(2-methyl-2,9-diazaspiro[5.5]undecan-9-yl)pyridin-2-yl)thio)-2-phenylacetamide], on DNMT1 (setting [3]), the “DNMT1 BioChemical (pIC50 category)” value is “D (Category D: ≥6.5)”. In addition, the values for the IC50 on DNMT3B (setting [4]) and on human DNMT3a/3l (setting [5]) were 124000 nM and greater than 500000 nM, respectively. The EC50 in test [1] was less than 316 nM.

Take `CCc1c(C#N)c(SC(C(N)=O)c2ccccc2)nc(N2CCC(C)(N)CC2)c1C#N` (centres unmarked) [Example 136, 2-((6-(4-Amino-4-methylpiperidin-1-yl)-3,5-dicyano-4-ethylpyridin-2-yl)thio)-2-phenylacetamide]: the “DNMT1 BioChemical (pIC50 category)” value at DNMT1 (setting [3]) was “D (Category D: ≥6.5)”. Further, at DNMT1 (breaklight assay and/or SPA assay, repeated experimental runs), the “average pIC50 against DNMT1” value is recorded as greater than 6.5. The IC50 at DNMT3B (setting [4]) was 379000 nM; on human DNMT3a/3l (setting [5]) it was greater than 500000 nM. Also, in test [1], the EC50 was less than 316 nM.
